From patent US20260183300A1, “PHARMACEUTICAL COMPOSITION AND USE THEREOF” (priority 2022, published 2026)

What was measured:
THG15 cells = experiment: Cell viability assay (CCK-8); format: cell-based; conditions: Homo sapiens, 72 hours, estimated IC50, read-out: IC50 (half maximal inhibitory concentration), cell viability
Experimental: Patient-derived tumor cell were obtained with the approval of the Ethics Committee of the Beijing Tsinghua Changgung Hospital in compliance with informed consent of the patient and their family. […] Briefly, the tissues were mechanically minced and then digested with 0.1% trypsin (Hyclone) and 10 U/ml DNasel (Roche) at 37° C. for 45 min. The tissues were passed through a 100-μm cell strainer after lysis of red blood cells and several washes. Cells that that passed through the filter were collected and added with EF medium composed of Neurobasal medium, 3 mM L-glutamine, 1×B27 supplement, 0.5×N2 supplement, 2 μg/mL heparin, 20 ng/mL recombinant human EGF (Sigma-Aldrich), 20 ng/mL recombinant human FGF2 (Sigma-Aldrich), and 0.5×antibiotic antimycotic complex. Fresh EF medium was replenished every 3 days during cell culture. Tumor cell spheres were dissociated using NeuroCult Chemical Dissociation kit (StemCell), and cells were passaged.
Panobinostat (LBH589) and Tazemetostat (EPZ-6438) were purchased from Selleck Chemicals and dissolved in 0.1% DMSO before use. About 5,000 THG15 cells were seeded into each well of a 96-well plate and cultured in EF medium for 24 hours prior to drug intervention. […] According to the instructions, cell viability was determined by using a CCK-8 kit (GK10001), and the optical density was measured at 450 nm using a SPARK reader (TECAN). […]

[1] = studies have shown; cited from earlier work

In the case of `Cc1[nH]c2ccccc2c1CCNCc1ccc(/C=C/C(=O)NO)cc1` [panobinostat, Panobinostat], the IC50 (THG15 cells) is listed as about 1 µM and the “penetration of the blood-brain barrier” value [1] is listed as “can penetrate the blood-brain barrier”.

`CCN(c1cc(-c2ccc(CN3CCOCC3)cc2)cc(C(=O)NCc2c(C)cc(C)[nH]c2=O)c1C)C1CCOCC1` [tazemetostat, Tazemetostat] gave an IC50 (THG15 cells) of about 50 µM.
